The text below walks through data of patent US20260168007A1, “Methods and Devices for Detecting Mechanical Forces Using Cas Nuclease and Guide RNA Complexes” (Emory University, priority 2022, published 2026).

One assay concerns human platelets. Nature of the assay: MCATS assay of human platelet forces on Ttol=12 pN surface.
The next assay concerns NIH/3T3 cells. Nature of the assay: MCATS assay of integrin-mediated forces in NIH/3T3 cells, plate reader readout. The assay is classed as cell-based. Particulars: NIH/3T3 cells pretreated 30 min, 0-50 μM. How it is done:
The values were normalized to the signal obtained from the 25,000 cells/well samples without drug treatment. All measurements were background subtracted using negative control wells lacking cells.
Considering that receptor mediated tension plays an important role in cell function, quantifying molecular forces of cell in a rapid fashion facilitates applications such as screening dose-response curves for drugs that modulate cell mechanics. Experiments were performed to determine whether MCATS can be used to produce a dose response curve for NIH-3T3 cell incubated with Rho kinase inhibitor, Y-27632, which targets the phosphorylation of myosin light chain and therefore dampens forces transmitted by focal adhesions. NIH/3T3 cells were pretreated with a range of Y-27632 concentrations (0-50 μM) for 30 min. MCATS was ran with the drug treated cell.
The wells were washed with 1×PBS.

SMILES strings stand for the structures.

Description for human platelets: Each drug was incubated for 30 min prior to seeding. Mechano-IC50 was calculated by fitting a plot to a standard dose-response function: Signal=Bottom+(Top-Bottom)/(1+([drug]/IC50).
Platelet-rich plasma (PRP) is prepared by centrifugation and separation from whole blood. Then platelets rich plasma was separated and centrifuged a second time with apyrase and resuspended in Tyrode's solution, which is isotonic with interstitial fluid, contains magnesium, and uses bicarbonate and phosphate as a buffer. Apyrase is important in the platelets purification process to prevent hemolysis caused platelets aggregation. MCATS was tested as a function of the number of platelets seeded on the Ttol=12pN surface (FIG. 3A). […]
MCATS assay was performed on the prepared biotin surface as described in the surface preparation section. […] Surfaces with exposed activator were imaged directly with fluorescence microscopy for high resolution characterization and quantification. […] After 1 h of incubation, fluorescence intensities on 96 well plates were measured with a plate reader (Ex/Em=540/590 nm for reporter channel).
For platelet MCATS measurements, human platelets were purified and incubated at room temperature for at least 30 min before beginning experiments. […] The same MCATS protocols were followed to achieve amplification and quantification for platelets.

In the case of `Nc1ncnc2c1ncn2[C@@H]1O[C@H](COP(=O)(O)OP(=O)(O)O)[C@@H](O)[C@H]1O` [ADP], the “MCATS tension signal, dose-response to agonist” value with human platelets is given as “Increasing tension signal”. Turning to `C[C@@H](N)[C@H]1CC[C@H](C(=O)Nc2ccncc2)CC1` [Y-27632], in the assay on NIH/3T3 cells, the “MCATS signal as a function of drug concentration” value is recorded as “dose-dependent reduction”.
